Values of other authors in US20120264119A1, “NEW METHOD FOR DECONTAMINATION AND PROCESSING OF CLINICAL SPECIMENS FROM A PATIENT” (priority 2011, published 2012).

Test system: Mycobacteria
Details: sputum processing with sodium hydroxide alone or with N-acetyl-cysteine

Structure (SMILES): [Na+].[OH-] [NaOH, sodium hydroxide]
- viable mycobacteria destroyed: more than 80%
